{"source": "patent US20260365625A1", "about": "“DEUTERIUM ENRICHED PHENYL DERIVATIVES FOR TREATING MITOCHONDRIARELATED DISORDERS OR CONDITIONS” (Rivus Pharmaceuticals, Inc., priority 2022, published 2026)", "test_system": "HepG2 (hepatocellular carcinoma cells)", "assay": "Oxygen consumption rate (OCR) in HepG2 cells, Seahorse XFe96 Extracellular Flux Analyzer", "assay_type": "cell-based", "procedure": "HepG2 (hepatocellular carcinoma cells) were utilized in a Seahorse XFe96 Extracellular Flux Analyzer to analyze Compound (A)'s and the phenolic metabolite of the compound of formula (I)'s (“DNP”) effect on oxygen consumption rate (OCR).\n30,000 HepG2 cells in MEM Alpha growth medium+10% Fetal Bovine Serum were seeded in XFe 96-well cell culture plate and incubated overnight at 37 °C with 5% CO2. The following day, cells were transferred to assay media (DMEM basal assay medium containing 10 mM Glucose 2 mM Glutamine, 1 mM Sodium Pyruvate, adjusted to pH7.4 with IN NaOH) and OCR was measured in a Seahorse XFe96 Extracellular Flux Analyzer according to the manufacturer's instructions. The effect of novel compounds on OCR was assayed in quadruplicates, at three different concentrations and in three separate experiments. The concentration that reaches half their maximum effect (EC50) and maximum OCR (Emax) increase as compared to DNP (100%) over untreated cells (0%) was calculated as an average between the three independent experiments. For data analysis GraphPad Prism was utilized."}
{"smiles": "O=[N+]([O-])c1ccc(O)c([N+](=O)[O-])c1", "note": "[DNP]", "values": [{"measurement": "Emax (maximum OCR increase as compared to DNP (100%) over untreated cells (0%))", "setting": "OCR values normalized to 100 μM DNP (Emax=100%), average of three independent experiments", "value": 100, "unit": "%"}, {"measurement": "effect on oxygen consumption rate (OCR)", "setting": "result in words", "value": "increased oxygen consumption rate (OCR)"}, {"measurement": "EC50", "setting": "three concentrations in quadruplicates, average of three independent experiments, read-out: EC50 (concentration that reaches half their maximum effect on OCR)", "value": 22, "unit": "µM"}]}
